Reference: article PMC5081515 (Scientific Reports, 2016)
Where two headings read alike, the source gives them in different places. Blank lines part the entries; values can stand above or below the compound they belong to.

Experiments:
TbrHGPRT [1] = molecular target: T1, TbrHGPRT (Trypanosoma brucei brucei, UniProt Q07010); experiment: Inhibition studies, Ki determination
Human HGPRT [2] = molecular target: Human HGPRT; design: method as in Cesnek et al. 19; Keough et al. 18; settings: ref Cesnek et al. 19, Keough et al. 18; cited from earlier work
TbrHGPRT [3] = molecular target: T1, TbrHGPRT; experiment: Standard enzyme activity assay with ammonium sulphate added; format: biochemical; design: made in house; host or cells: E. coli BL-21 (DE3), pET-22b; settings: 2M ammonium sulphate added to the cuvette
Human HGPRT [4] = test system: Human HGPRT; design: method as in de Jersey et al. 10; settings: cited from earlier work
TcrHGPRT = test system: TcrHGPRT; design: method as in Canyuk et al. 43; Allen & Ullman 54; settings: cited from earlier work
TbrHGPRT [5] = molecular target: T1, TbrHGPRT; experiment: Kinetic constants of naturally occurring substrates, continuous spectrophotometric assay; format: biochemical; design: made in house; host or cells: E. coli BL-21 (DE3), pET-22b
Description: One unit of activity is defined as the number of μmol of purine base converted to its mononucleotide product per minute.
The kinetic constants were calculated using GraphPad Prism 6.0.

[6] = ref de Jersey et al. 10, read-out: Km
[7] = ref Canyuk et al. 43, Allen & Ullman 54, read-out: Km
[8] = ref Canyuk et al. 43, Allen & Ullman 54

T1 sequence (Q07010 whole entry): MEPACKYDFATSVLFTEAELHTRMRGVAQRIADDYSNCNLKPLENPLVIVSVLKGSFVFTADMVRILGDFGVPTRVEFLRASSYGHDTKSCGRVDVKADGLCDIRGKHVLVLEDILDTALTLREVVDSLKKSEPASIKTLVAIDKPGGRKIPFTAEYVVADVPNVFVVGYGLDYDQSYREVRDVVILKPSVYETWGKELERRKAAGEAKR

Ki (TbrHGPRT [1]): 58.6 ± 4 µM
SMILES: O=c1[nH]cnc2c1ncn2CCCCP(=O)(O)O [Compound 5]
Ki (Human HGPRT [2]): > 100 µM

Ki (TbrHGPRT [1]): > 100 µM
SMILES: O=c1[nH]cnc2c1ncn2CCCP(=O)(O)O [Compound 4]
Ki (Human HGPRT [2]): > 100 µM

Ki (TbrHGPRT [1]): 15.8 ± 1.8 µM
SMILES: O=c1[nH]cnc2c1ncn2CCCCCP(=O)(O)O [Compound 6]
Ki (Human HGPRT [2]): > 100 µM

Ki (TbrHGPRT [1]): > 100 µM
SMILES: O=c1[nH]cnc2c1ncn2CCCCCCP(=O)(O)O [Compound 7]
Ki (Human HGPRT [2]): 77 µM

Ki (TbrHGPRT [1]): 21.3 ± 0.4 µM
SMILES: Nc1nc2c(ncn2CCCCCCP(=O)(O)O)c(=O)[nH]1 [Compound 3]
Ki (Human HGPRT [2]): 0.5 µM

Ki (TbrHGPRT [1]): 2.3 ± 0.1 µM
SMILES: Nc1nc2c(ncn2CCCCCP(=O)(O)O)c(=O)[nH]1 [Compound 2]
Ki (Human HGPRT [2]): 0.5 µM

The next lines start with the compound.

SMILES: Nc1nc2c(ncn2[C@@H]2O[C@H](COP(=O)(O)O)[C@@H](O)[C@H]2O)c(=O)[nH]1 [GMP, reference compound]
Ki (TbrHGPRT [1]; 0.03 M phosphate, […] MgCl2, 1 mM DTT, pH 7.4, 25 °C, guanine 40 μM, PRib-PP varied 20 to 630 μM): 30.5 ± 1.5 µM | Ki for GMP, fold lower than for IMP (TbrHGPRT [1]; TbrHGPRT): 2.5 fold | Ki for TbrHGPRT, fold higher than for human HGPRT (TbrHGPRT [1]; TbrHGPRT vs human HGPRT): 5 fold | Ki (Human HGPRT [2]): 5.8 ± 0.2 µM

SMILES: N.N.O=S(=O)(O)O [sulphate, ammonium sulphate]
inhibition (TbrHGPRT [3]): 25%

SMILES: Nc1nc2nc[nH]c2c(=O)[nH]1 [Guanine]
Km (Human HGPRT [4]; [6]): 1.9 ± 0.4 µM | kcat (Human HGPRT [4]; ref de Jersey et al. 10): 8.2 ± 0.6 s⁻¹ | Km (TcrHGPRT; [7]): 9.9 ± 0.29 µM | kcat (TcrHGPRT; [8]): 41.2 ± 2.9 s⁻¹

SMILES: O=c1[nH]cnc2nc[nH]c12 [Hypoxanthine]
Km, fold higher than for guanine (TbrHGPRT [5]; TbrHGPRT): 2 fold | Km (Human HGPRT [4]; [6]): 3.4 ± 1 µM | kcat (Human HGPRT [4]; ref de Jersey et al. 10): 5.2 ± 0.4 s⁻¹ | Km (TcrHGPRT; [7]): 8.6 ± 1 µM | kcat (TcrHGPRT; [8]): 23 s⁻¹

SMILES: O=c1[nH]c(=O)c2nc[nH]c2[nH]1 [Xanthine]
kcat (TbrHGPRT [5]; 0.03 M phosphate buffer, […] MgCl2, 1 mM DTT, pH 7.4, 25 °C): Weak activity | Km (TbrHGPRT [5]; 0.03 M phosphate buffer, […] MgCl2, 1 mM DTT, pH 7.4, 25 °C, bases at 500 μM PRib-PP, PRib-PP at 40 μM guanine): Weak activity | activity as a substrate (TbrHGPRT [5]; TbrHGPRT): only very weak activity | Km (Human HGPRT [4]; ref de Jersey et al. 10): Not a substrate | kcat (Human HGPRT [4]; ref de Jersey et al. 10): Not a substrate | Km (TcrHGPRT; [8]): No activity reported | kcat (TcrHGPRT; [8]): No activity reported

SMILES: Nc1nc2c(ncn2CCCCP(=O)(O)O)c(=O)[nH]1 [Compound 1]
Ki (TbrHGPRT [1]): 23.7 ± 0.3 µM | Ki (Human HGPRT [2]): 21 µM

SMILES: O=P(O)(O)OC[C@H]1O[C@H](OP(=O)(O)OP(=O)(O)O)[C@H](O)[C@@H]1O [PRib-PP]
Km (Human HGPRT [4]; [6]): 59.6 ± 6 µM | Km (TcrHGPRT; [7]): 32.4 ± 3.1 µM
